Source: patent publication US6936625B2 (Hanmi Pharm. Co., Ltd., priority 2001, dated 2005)
In brackets after ≈: the same amount, converted by molar mass. Read-outs that look alike come from different tables or passages of the source.

Legend:
Quail = conditions: oral; cited from earlier work
Mouse = conditions: in vivo, sc; cited from earlier work
[1] = Stability test (storage at 55° C., about 50% relative humidity); format: physicochemical; parameters: remaining amount of active amlodipine: unit not given here; conditions: relative humidity about 50%; for time-dependent stability (in words): up to 4 weeks
Experimental: Specifically, each compound was stored at 55° C., a relative humidity of about 50%, and after 1, 2, 3 and 4 weeks, the remaining amount of active amlodipine was determined with a liquid chromatography.

[2] = Non-hygroscopicity test (moisture content); format: physicochemical; conditions: for moisture content, Condition 2: 30° C. under 95% relative humidity for 3 days; for moisture content, Condition 1: 37° C. under 75% relative humidity for 24 hours; for Initial moisture: before exposure
Experimental: When a solid form of a drug is to be formulated, it is important that the drug is not hygroscopic. Accordingly, the hygroscopicity of the inventive amlodipine camsylate was measured and compared with that of amlodipine besylate.
Each compound was exposed to two conditions: 37° C. under 75% relative humidity for 24 hours (condition 1) and 30° C. under 95% relative humidity for 3 days (condition 2), and then, the moisture content of each compound was measured according to the method described in Korean Patent Publication No. 1995-7228.

[3] = Solubility test (saturation in distilled water, liquid chromatography); format: physicochemical; conditions: for Solubility: distilled water to saturation, based on the amount of amlodipine
Experimental: The measurement was performed according to the procedure described in the Korean Pharmacopoeia (Korean Ministry of Health and Welfare, General principle of medical supplies, Vol. 1, Clause 29, the 7th revision) which comprises the steps of dissolving each compound in distilled water to saturation, analyzing the saturated solution with liquid chromatography, and measuring the dissolved amount of each compound based on the amount of amlodipine.

Rat = conditions: oral; cited from earlier work
Wild-birds = conditions: oral; cited from earlier work
Cat = conditions: cutaneous; cited from earlier work
[4] = in a solution; cited from earlier work

| Compound | remaining amount of active amlodipine ([1]; 1 week) | remaining amount of active amlodipine ([1]; 2 weeks) | remaining amount of active amlodipine ([1]; 3 weeks) | remaining amount of active amlodipine ([1]; 4 weeks) | remaining amount of active amlodipine ([1]; Initial) | moisture content, Condition 2 [2] | moisture content, Condition 1 [2] | Initial moisture [2] | other results |
| --- | --- | --- | --- | --- | --- | --- | --- | --- | --- |
| CC1(C)C2CCC1(CS(=O)(=O)O)C(=O)C2 (racemic) [(±)-10-Camphor sulfonic aicd, (±)-10-camphor sulfonic acid] | – | – | – | – | – | – | – | – | LD50 (Quail): LD50 > 316 mg/kg |
| CC1(C)C2CC[C@@]1(CS(=O)(=O)O)C(=O)C2 [(1S)-(+)-10-Camphor sulfonic acid, (1S)-(+)-10-camphor sulfonic acid] | – | – | – | – | – | – | – | – | LD50 (Mouse): LD50 2502 mg/kg |
| CCOC(=O)C1=C(COCCN)NC(C)=C(C(=O)OC)C1c1ccccc1Cl (stereo not drawn) [Amlodipine besylate, amlodipine benzenesulfonate, reference compound] | 0.992 | 0.996 | 0.993 | 0.993 | 1 | 0.15% | 0.05% | 0.05% | time-dependent stability (in words) [1]: slight but significant degradation after 1 week; Solubility ([3]; distilled water, water, thermodynamic from solid, read-out: Solubility): 1.4 mg/mL |
| CCOC(=O)C1=C(COCCN)NC(C)=C(C(=O)OC)C1c1ccccc1Cl [Amlodipine camsylate of Example 1 (S), Amlodipine Camsylate] | 1 | 0.998 | 1 | 1 | 1 | 0.15% | 0.05% | 0.05% | Solubility [3]: 1.225 mg/mL (≈ 3 mM); Saturation pH ([3]; saturated solution in distilled water): 6.0 |
| CCOC(=O)C1=C(COCCN)NC(C)=C(C(=O)OC)C1c1ccccc1Cl [Amlodipine camsylate of Example 2 (R), Amlodipine Camsylate] | 1 | 1 | 1.002 | 1 | 1 | 0.15% | 0.05% | 0.05% | Solubility [3]: 1.250 mg/mL (≈ 3.06 mM) |
| CCOC(=O)C1=C(COCCN)NC(C)=C(C(=O)OC)C1c1ccccc1Cl (stereo not drawn) [Amlodipine camsylate, amlodipine camsylate] | – | – | – | – | – | – | – | – | time-dependent stability (in words) [1]: stable during the 4 weeks period |
| O=S(=O)(O)c1ccccc1 [Benzene sulfonic acid] | – | – | – | – | – | – | – | – | LD50 (Rat): LD50 890 μl/kg; LD50 (Wild-birds): LD50 75 mg/kg; LDLO (Cat): LDLO 10 g/kg |
| amlodipine maleate | – | – | – | – | – | – | – | – | stability in solution (in words) [4]: degrades in a solution within several weeks |
